Earlier results as cited in patent publication US20080318986A1, “Ddc Compositions” (priority 2005, published 2008).

System: adenoviral strains
Details: literature study; for inhibition of adenoviral strains: Kaneko et al. J. Jpn. Opthalmol. Soc. 107:196-201 (2003)

SMILES	inhibition of adenoviral strains	EC50 values against adenoviral strains (rank among NMSO3, HPMPC, dDC) (Kaneko et al. 2003, comparison in words only)
Nc1ccn([C@H]2CC[C@@H](CO)O2)c(=O)n1 [dDC, 2′,3′-Dideoxycytidine]	inhibited adenoviral strains	
CCCCCCCCCCCCCCCCCCCCCCOCC(C)(COCCCCCCCCCCCCCCCCCCCCCC)CO[C@]1(C(=O)O)C[C@H](OS(=O)(=O)O)[C@@H](NC(C)=O)[C@H]([C@H](OS(=O)(=O)O)[C@@H](COS(=O)(=O)O)OS(=O)(=O)O)O1 [NMSO3]	inhibited adenoviral strains	lowest EC50 values
Nc1ccn(C[C@@H](CO)OCP(=O)(O)O)c(=O)n1 [HPMPC]	inhibited adenoviral strains	
